# Measurements from US4172148A, “Ruminant feeds containing trichloroethyl esters of essential amino acids” (E. R. Squibb & Sons, Inc., priority 1978, dated 1979).
# Key:
# [1] = test system: volatile fatty acid concentrations in fistulated sheep; assay: volatile fatty acid concentrations in vivo in fistulated sheep, 227 g concentrate and 680 g alfalfa hay (Examples 5 and 8); conditions: for Acetic:propionic ratio / Other acids (%) / Butyric acid (%) / Propionic acid (%) / Acetic acid (%) / Total acids: day 7
# Text: Mature sheep (wethers) fitted with permanent rumen fistulae were used to determine the effect of L-phenylalanine, 2,2,2-trichloroethyl ester on volatile fatty acid concentrations in vivo (3 wethers per treatment). The animals were individually penned and fed 227 g. of concentrate (described in Example 3) and 680 g. of alfalfa hay once daily. The test compound was admixed with the concentrate. The sheep were medicated for 7 days. Samples for analysis were obtained before (Day 0) and after treatment (Day 7) approximately 6 hours after feeding.
# [2] = test system: volatile fatty acid concentrations in the in vitro rumen fermentation; assay: in vitro rumen fermentation, volatile fatty acids, alfalfa hay:concentrate 3:1 (Examples 3 and 12); set-up: species or system sheep; conditions: for Acetic acid / Acetic:propionic / Butyric acid / Propionic acid / Total acids: 6 h, 39° C.
# Protocol: A one gram sample of substrate ground through a 1 mm screen is weighed into 100 ml. lipless beakers equipped with gas-release valves. The substrate consists of alfalfa hay containing approximately 16% protein and a concentrate containing ground corn 60.7%, alfalfa meal 17.5%, molasses 10.0%, soybean meal 5.3%, wheat bran 5.0%, trace mineralized salt 1.0%, limestone 0.5% and Vitamin D 300,000 I.U./ton, mixed in the proportion 3:1. The experimental composition is added to the substrate. 25 ml. of filtered rumen fluid obtained from fasted sheep maintained on feed the same as the above mentioned substrate and 25 ml. of McDougal's buffer solution serve as the inoculum. The buffer solution is as follows:
# The fermentation mixture is flushed with carbon dioxide and the vessel is capped with a gas release valve. The fermentation vessel (beaker) is placed in a water bath and incubated at 39° C.±1° for six hours. The sample is mixed every hour by shaking the beaker.
# At the end of the 6-hour fermentation period the sample is strained through 4 layers of cheesecloth into a sample bottle containing 1 ml. saturated solution of mercuric chloride. The sample is frozen immediately until analyzed for the volatile fatty acids (VFA) (mg/100 ml.). Prior to analysis, each sample is acidified with 30% phosphoric acid and then analyzed by gas chromatography using a column containing 5% nonylphenoxypolyoxyethylene ethanol plus 0.5% phosphoric acid on 100-120 mesh Gas Chrom S. The acids determined are acetic, propionic, butyric, isobutyric, valeric and isovaleric acids. Total VFA is considered as the addition of these acids. The ratio of acetic: propionic (A:P) is obtained by dividing the concentration of acetic acid by that of propionic acid.
# The effect of various compounds alone on the volatile fatty acid concentrations was determined by the procedure of Example 3. […] A direct comparison between phenylalanine and phenylalanine trichloroethyl ester is provided.
# [3] = test system: growing lambs; assay: body weight gain and feed efficiency of growing lambs (Examples 9-11); type: in vivo, lambs (sheep)
# Protocol: A test was conducted to determine if feeding L-phenylalanine, 2,2,2-trichloroethyl ester to growing lambs was effective in improving growth and feed efficiency. Wether and ewe lambs were divided into groups of 30 lambs each. They were acclimated to their pens for 2 weeks prior to treatment.
# The feed supplied to the animals had the following composition
# The test compound in an amount of 0.0055% (50 g/ton) was admixed with the above feed composition.
# Body weights and feed consumption were recorded at 0, 2, 4 and 6 weeks. Feed efficiencies were calculated.
# The test procedure of Example 9 was followed to test the growth effect and feed efficiency of glycine 2,2,2-trichloroethyl ester on growing lambs. The feed composition of Example 9 was used but contained glycine 2,2,2-trichloroethyl ester in an amount of 0.0044% (40 g/ton). There were 44 lambs in the control group receiving the feed composition without additive and 42 lambs receiving the feed composition containing the amino acid ester.
# The test procedure of Example 9 was followed to test the growth effect and feed efficiency of L-phenylalanine 2,2,2-trichloroethyl ester on growing lambs. The feed composition of Example 9 was used but contained 0.0088% (80 g/ton) of this amino acid ester. There were 59 lambs in the control group fed the feed without additive and 58 lambs in the group fed the feed composition containing the test compound.
structure (smiles),measurement,setting,value
"Br.N[C@@H](Cc1ccccc1)C(=O)OCC(Cl)(Cl)Cl [L-Phenylalanine 2,2,2-trichloroethyl ester, hydrobromide]",Acetic:propionic ratio,"[1]; 200 mg/head/day, pretreatment 3.52, control day 7 3.56",3.11
same,Other acids (%),"[1]; 200 mg/head/day, pretreatment 5.4, control day 7 5.5",5.8%
same,Butyric acid (%),"[1]; 200 mg/head/day, pretreatment 12.8, control day 7 15.5",15.1%
same,Propionic acid (%),"[1]; 200 mg/head/day, pretreatment 18.2, control day 7 17.4",19.3%
same,Acetic acid (%),"[1]; 200 mg/head/day, pretreatment 63.7, control day 7 61.6",59.7%
same,Total acids,"[1]; 200 mg/head/day, pretreatment 657, control day 7 698",667 mg/100 ml.
same,Acetic:propionic ratio,"[1]; 500 mg/head/day, pretreatment 3.39, control day 7 3.56",2.43
same,Other acids (%),"[1]; 500 mg/head/day, pretreatment 5.7, control day 7 5.5",8.1%
same,Butyric acid (%),"[1]; 500 mg/head/day, pretreatment 12.7, control day 7 15.5",18.0%
same,Propionic acid (%),"[1]; 500 mg/head/day, pretreatment 18.6, control day 7 17.4",21.5%
same,Acetic acid (%),"[1]; 500 mg/head/day, pretreatment 63.1, control day 7 61.6",52.5%
same,Total acids,"[1]; 500 mg/head/day, pretreatment 614, control day 7 698",624 mg/100 ml.
same,effect on acetic:propionic ratio (in words),"[1]; fistulated sheep, 7 days",decreased the acetic:propionic ratio
same,effect on proportion of propionic acid (in words),"[1]; fistulated sheep, 7 days",increased the proportion of propionic acid
same,Acetic acid,[2]; 0.02 mg/ml,95 % of control
same,Acetic:propionic,[2]; 0.02 mg/ml,83 % of control
same,Butyric acid,[2]; 0.02 mg/ml,106 % of control
same,Propionic acid,[2]; 0.02 mg/ml,115 % of control
same,Total acids,[2]; 0.02 mg/ml,101 % of control
same,Acetic acid,[2]; 0.04 mg/ml,85 % of control
same,Acetic:propionic,[2]; 0.04 mg/ml,77 % of control
same,Butyric acid,[2]; 0.04 mg/ml,114 % of control
same,Propionic acid,[2]; 0.04 mg/ml,111 % of control
same,Total acids,[2]; 0.04 mg/ml,95 % of control
same,Acetic acid,[2]; 0.08 mg/ml,95 % of control
same,Acetic:propionic,[2]; 0.08 mg/ml,84 % of control
same,Butyric acid,[2]; 0.08 mg/ml,108 % of control
same,Propionic acid,[2]; 0.08 mg/ml,112 % of control
same,Total acids,[2]; 0.08 mg/ml,100 % of control
same,Acetic acid,[2]; 0.1 mg/ml,92 % of control
same,Acetic:propionic,[2]; 0.1 mg/ml,74 % of control
same,Butyric acid,[2]; 0.1 mg/ml,116 % of control
same,Propionic acid,[2]; 0.1 mg/ml,124 % of control
same,Total acids,[2]; 0.1 mg/ml,102 % of control
same,Acetic acid,[2]; 0.2 mg/ml,90 % of control
same,Acetic:propionic,[2]; 0.2 mg/ml,75 % of control
same,Butyric acid,[2]; 0.2 mg/ml,114 % of control
same,Propionic acid,[2]; 0.2 mg/ml,120 % of control
same,Total acids,[2]; 0.2 mg/ml,100 % of control
same,Acetic acid,[2]; 0.4 mg/ml,83 % of control
same,Acetic:propionic,[2]; 0.4 mg/ml,73 % of control
same,Butyric acid,[2]; 0.4 mg/ml,115 % of control
same,Propionic acid,[2]; 0.4 mg/ml,114 % of control
same,Total acids,[2]; 0.4 mg/ml,94 % of control
same,effect on acetic to propionic acid ratio (in words),[2]; at all levels (0.02-0.4 mg/ml),decreasing the acetic to propionic acid ratio
same,effect on propionic acid concentrations (in words),[2]; at all levels (0.02-0.4 mg/ml),effective in increasing the propionic acid concentrations
same,Body weight gain,"[3]; 0.0055% (50 g/ton) in feed, 0-2 wks., control 2.47",2.97 kg
same,Body weight gain,"[3]; 0.0055% (50 g/ton) in feed, 0-4 wks., control 5.80",5.82 kg
same,Feed efficiency,"[3]; 0.0055% (50 g/ton) in feed, 0-6 wks., control 0.190",0.196 gain/unit of feed
same,Body weight gain,"[3]; 0.0055% (50 g/ton) in feed, 0-6 wks., control 8.51",9.08 kg
same,effect on feed efficiency (in words),[3]; 0.0055% (50 g/ton) in the feed,improving feed efficiency
same,effect on gains (in words),[3]; 0.0055% (50 g/ton) in the feed,effective in increasing gains
same,Weight gain,"[3]; 0.0088% (80 g/ton) in feed, 0-2 wks, control 1.50",1.49 kg
same,Weight gain,"[3]; 0.0088% (80 g/ton) in feed, 0-4 wks, control 4.44",4.63 kg
same,Feed efficiency,"[3]; 0.0088% (80 g/ton) in feed, 0-6 wks, control 0.160",0.168 gain/feed
same,Weight gain,"[3]; 0.0088% (80 g/ton) in feed, 0-6 wks, control 7.56",7.81 kg
